Assay results: patent US8933129B2, “Compounds and methods for modulating activity of calcium release channels” (State of Oregon by and through the State Board of Higher …, priority 2009, dated 2015)
Like-named read-outs stand apart in the source and are kept apart here.

Legend:
[1] = molecular target: T1, RyR1 (skeletal muscle CRC) (Oryctolagus cuniculus, UniProt P11716); experiment: Single Ca2+ channel analysis: open probability of skeletal muscle CRC reconstituted in planar bilayer; assay type: biochemical, rabbit
T1 construct: from tissue; host or cells: fast twitch skeletal muscle of New Zealand White rabbit, heavy sarcoplasmic reticulum fraction
T1 sequence (P11716 whole entry): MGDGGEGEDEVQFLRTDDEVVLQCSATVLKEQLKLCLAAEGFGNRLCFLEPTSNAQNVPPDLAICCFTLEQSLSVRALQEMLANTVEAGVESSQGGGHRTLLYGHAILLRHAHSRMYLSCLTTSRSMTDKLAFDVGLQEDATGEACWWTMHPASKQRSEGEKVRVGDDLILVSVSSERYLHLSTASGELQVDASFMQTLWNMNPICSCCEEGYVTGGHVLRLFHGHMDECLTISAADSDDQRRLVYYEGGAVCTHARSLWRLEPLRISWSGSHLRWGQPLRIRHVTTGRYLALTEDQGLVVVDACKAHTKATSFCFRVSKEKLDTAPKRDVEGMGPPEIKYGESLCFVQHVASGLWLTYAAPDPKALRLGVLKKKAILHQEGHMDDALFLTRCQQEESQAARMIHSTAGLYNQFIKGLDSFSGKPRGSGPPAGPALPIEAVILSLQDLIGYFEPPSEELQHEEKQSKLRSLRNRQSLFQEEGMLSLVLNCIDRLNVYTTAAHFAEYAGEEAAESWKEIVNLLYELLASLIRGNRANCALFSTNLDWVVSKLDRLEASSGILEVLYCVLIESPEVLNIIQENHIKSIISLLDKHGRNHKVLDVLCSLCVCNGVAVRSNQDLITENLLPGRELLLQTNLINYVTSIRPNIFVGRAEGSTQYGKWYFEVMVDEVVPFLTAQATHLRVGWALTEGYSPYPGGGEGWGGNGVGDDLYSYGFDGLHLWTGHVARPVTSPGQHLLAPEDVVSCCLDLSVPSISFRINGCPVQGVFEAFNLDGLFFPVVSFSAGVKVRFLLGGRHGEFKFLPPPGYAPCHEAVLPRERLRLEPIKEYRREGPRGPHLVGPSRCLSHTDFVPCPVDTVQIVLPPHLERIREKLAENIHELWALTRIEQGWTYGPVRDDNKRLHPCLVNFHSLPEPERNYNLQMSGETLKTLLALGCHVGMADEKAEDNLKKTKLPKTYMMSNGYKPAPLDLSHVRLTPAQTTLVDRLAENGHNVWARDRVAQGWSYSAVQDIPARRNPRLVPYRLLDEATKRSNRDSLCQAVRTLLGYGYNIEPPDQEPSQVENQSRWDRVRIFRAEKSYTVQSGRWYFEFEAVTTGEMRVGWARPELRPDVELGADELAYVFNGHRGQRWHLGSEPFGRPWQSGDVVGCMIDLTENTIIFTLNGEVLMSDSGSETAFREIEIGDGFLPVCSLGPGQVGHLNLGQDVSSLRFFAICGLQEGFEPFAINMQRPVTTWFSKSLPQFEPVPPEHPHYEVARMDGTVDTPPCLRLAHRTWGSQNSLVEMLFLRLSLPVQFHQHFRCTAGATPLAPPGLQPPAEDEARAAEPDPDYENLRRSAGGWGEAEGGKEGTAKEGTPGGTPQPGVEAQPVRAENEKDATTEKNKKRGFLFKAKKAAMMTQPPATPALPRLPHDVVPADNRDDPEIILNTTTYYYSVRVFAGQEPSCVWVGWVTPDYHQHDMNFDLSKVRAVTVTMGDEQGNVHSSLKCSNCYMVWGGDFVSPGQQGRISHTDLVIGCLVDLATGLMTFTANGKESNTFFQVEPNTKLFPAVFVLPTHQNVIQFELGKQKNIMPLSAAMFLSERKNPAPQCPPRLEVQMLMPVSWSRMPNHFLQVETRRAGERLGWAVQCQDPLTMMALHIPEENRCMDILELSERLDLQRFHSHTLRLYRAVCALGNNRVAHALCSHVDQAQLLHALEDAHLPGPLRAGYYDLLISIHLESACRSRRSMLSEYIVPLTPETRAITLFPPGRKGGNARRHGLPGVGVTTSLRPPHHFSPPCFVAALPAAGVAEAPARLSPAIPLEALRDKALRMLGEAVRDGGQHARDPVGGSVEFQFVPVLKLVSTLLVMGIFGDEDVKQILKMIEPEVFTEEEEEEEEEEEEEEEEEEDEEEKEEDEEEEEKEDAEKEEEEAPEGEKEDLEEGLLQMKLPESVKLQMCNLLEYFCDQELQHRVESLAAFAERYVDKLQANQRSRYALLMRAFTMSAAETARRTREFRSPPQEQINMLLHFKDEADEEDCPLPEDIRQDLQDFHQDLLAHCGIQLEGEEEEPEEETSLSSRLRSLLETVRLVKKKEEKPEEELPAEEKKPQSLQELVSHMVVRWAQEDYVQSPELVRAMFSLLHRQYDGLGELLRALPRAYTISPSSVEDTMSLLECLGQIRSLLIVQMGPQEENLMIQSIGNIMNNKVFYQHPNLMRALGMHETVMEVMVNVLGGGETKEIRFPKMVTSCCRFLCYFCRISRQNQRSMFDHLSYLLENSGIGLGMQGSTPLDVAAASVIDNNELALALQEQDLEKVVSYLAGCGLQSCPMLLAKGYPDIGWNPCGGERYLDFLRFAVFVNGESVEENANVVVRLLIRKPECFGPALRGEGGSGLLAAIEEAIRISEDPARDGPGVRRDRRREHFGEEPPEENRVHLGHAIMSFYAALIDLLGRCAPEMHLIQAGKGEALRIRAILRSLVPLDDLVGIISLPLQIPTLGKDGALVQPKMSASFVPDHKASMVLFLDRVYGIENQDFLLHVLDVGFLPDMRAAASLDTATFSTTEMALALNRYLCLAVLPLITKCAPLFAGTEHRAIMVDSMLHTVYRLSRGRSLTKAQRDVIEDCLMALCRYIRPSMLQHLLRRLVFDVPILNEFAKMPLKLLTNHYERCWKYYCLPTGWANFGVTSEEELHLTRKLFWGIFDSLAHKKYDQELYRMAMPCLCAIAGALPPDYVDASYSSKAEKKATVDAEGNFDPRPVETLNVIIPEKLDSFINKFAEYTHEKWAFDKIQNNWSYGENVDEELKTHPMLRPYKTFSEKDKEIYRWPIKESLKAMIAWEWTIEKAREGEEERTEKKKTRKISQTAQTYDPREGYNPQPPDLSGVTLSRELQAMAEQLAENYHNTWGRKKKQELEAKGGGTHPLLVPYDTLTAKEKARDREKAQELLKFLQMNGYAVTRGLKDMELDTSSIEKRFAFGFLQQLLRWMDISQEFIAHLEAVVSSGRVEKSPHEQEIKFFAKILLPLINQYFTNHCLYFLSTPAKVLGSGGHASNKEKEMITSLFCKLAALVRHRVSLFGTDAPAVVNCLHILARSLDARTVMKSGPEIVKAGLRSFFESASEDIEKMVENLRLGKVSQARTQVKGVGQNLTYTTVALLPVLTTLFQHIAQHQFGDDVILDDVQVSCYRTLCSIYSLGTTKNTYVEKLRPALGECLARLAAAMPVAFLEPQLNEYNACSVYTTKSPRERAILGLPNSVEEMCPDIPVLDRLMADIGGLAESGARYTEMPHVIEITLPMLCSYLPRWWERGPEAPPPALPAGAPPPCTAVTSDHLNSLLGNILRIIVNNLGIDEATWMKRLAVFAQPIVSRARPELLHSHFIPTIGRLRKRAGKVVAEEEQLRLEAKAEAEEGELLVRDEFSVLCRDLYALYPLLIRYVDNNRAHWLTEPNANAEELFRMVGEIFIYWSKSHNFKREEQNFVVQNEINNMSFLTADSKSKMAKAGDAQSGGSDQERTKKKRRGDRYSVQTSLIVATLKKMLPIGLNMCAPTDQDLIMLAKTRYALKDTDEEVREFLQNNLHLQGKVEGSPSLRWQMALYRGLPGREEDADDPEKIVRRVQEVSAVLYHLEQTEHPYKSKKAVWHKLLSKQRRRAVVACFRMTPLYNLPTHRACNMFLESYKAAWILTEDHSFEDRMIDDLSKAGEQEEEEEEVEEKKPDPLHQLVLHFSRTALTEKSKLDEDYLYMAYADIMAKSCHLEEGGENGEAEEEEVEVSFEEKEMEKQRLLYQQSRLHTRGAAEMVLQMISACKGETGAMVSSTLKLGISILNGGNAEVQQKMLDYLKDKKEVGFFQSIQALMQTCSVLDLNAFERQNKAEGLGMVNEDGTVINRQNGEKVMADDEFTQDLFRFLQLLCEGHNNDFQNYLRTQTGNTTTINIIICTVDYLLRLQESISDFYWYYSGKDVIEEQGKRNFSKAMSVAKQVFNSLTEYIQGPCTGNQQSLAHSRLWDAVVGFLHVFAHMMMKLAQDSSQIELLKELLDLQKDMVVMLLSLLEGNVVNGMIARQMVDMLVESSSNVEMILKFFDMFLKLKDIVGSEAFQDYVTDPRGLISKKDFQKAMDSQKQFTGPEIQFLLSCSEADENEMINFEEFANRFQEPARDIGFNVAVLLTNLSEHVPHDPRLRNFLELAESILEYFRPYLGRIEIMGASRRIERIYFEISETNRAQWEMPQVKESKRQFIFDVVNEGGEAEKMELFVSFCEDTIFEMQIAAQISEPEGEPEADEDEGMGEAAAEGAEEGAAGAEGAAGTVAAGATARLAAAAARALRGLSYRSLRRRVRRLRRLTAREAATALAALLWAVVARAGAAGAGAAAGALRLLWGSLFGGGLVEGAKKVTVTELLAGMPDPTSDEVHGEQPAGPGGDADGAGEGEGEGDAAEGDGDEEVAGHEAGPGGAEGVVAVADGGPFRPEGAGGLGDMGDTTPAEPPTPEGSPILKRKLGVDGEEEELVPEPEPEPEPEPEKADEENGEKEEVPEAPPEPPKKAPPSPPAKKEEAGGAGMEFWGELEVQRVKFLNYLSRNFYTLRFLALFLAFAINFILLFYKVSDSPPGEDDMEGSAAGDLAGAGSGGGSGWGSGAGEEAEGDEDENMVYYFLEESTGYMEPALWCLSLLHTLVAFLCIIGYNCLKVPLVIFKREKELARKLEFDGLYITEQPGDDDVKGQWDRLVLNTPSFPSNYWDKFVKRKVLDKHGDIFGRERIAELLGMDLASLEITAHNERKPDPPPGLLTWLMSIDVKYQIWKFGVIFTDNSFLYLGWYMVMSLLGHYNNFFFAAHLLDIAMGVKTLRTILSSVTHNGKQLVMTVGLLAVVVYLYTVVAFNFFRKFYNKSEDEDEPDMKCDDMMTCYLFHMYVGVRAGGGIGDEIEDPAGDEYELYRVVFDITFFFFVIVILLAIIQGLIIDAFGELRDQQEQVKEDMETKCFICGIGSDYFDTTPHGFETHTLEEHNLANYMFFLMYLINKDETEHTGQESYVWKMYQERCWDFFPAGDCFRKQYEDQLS
T1 sequence (P62943 2-108 partner limits assumed): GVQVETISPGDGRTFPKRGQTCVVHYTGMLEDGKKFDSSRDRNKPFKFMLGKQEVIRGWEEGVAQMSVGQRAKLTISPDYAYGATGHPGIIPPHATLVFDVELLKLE
Protocol: Fast twitch skeletal muscle sarcoplasmic reticulum was isolated from New Zealand White rabbit, a rich source of skeletal receptors. Following isolation of a crude fraction, the SR was placed on a discontinuous sucrose gradient and a heavy fraction (HSR) was used for all single channel experiments. Ca^2+ release channel reconstitution into a bilayer membrane was carried out by the addition of SR vesicles to the cis side of a planar bilayer lipid membrane. Bilayers, made with a 5:3:2 mixture of phosphatidylethanolamine:phosphatidylserine:phosphatidylcholine (Avanti Polar Lipids) at 50 mg/ml in decane, were formed across a 150 μm hole drilled in a polystyrene cup separating two chambers of 0.7 ml each. […] SR vesicles, suspended in 0.4-0.6 M sucrose, 400 mM CsMS were added to the cis chamber at a final concentration of 5-20 μg/ml.

[2] = molecular target: T2, skeletal muscle CRC (skeletal muscle ryanodine receptor RyR1) (Oryctolagus cuniculus, UniProt P11716); experiment: single channel activity (open probability) of skeletal muscle Ca2+ release channel reconstituted in planar lipid bilayer; assay type: biochemical, rabbit (New Zealand White); conditions: sub-micromolar 4-MmC; FIG. 5
T2 construct: heavy sarcoplasmic reticulum vesicles from fast twitch skeletal muscle fused to planar lipid bilayer; single channel recording
Protocol: Fast twitch skeletal muscle sarcoplasmic reticulum was isolated from New Zealand White rabbit, a rich source of skeletal receptors. Following isolation of a crude fraction, the SR was placed on a discontinuous sucrose gradient and a heavy fraction (HSR) was used for all single channel experiments. Ca^2+ release channel reconstitution into a bilayer membrane was carried out by the addition of SR vesicles to the cis side of a planar bilayer lipid membrane. Bilayers, made with a 5:3:2 mixture of phosphatidylethanolamine:phosphatidylserine:phosphatidylcholine (Avanti Polar Lipids) at 50 mg/ml in decane, were formed across a 150 μm hole drilled in a polystyrene cup separating two chambers of 0.7 ml each. The cis chamber contained 400 mM cesium methane sulfonate (CsMS), 50 μM CaCl2, 25 mM HEPES, pH 7.4, while the trans side contained 40 mM CsMS, 25 mM HEPES pH 7.4. SR vesicles, suspended in 0.4-0.6 M sucrose, 400 mM CsMS were added to the cis chamber at a final concentration of 5-20 μg/ml. […] Channel activity was then measured at a holding potential of +25 mV with respect to the trans (ground) side. […] The data were interfaced through a Digidata 1322A 16 bit data Acquisition System (Axon Instruments), stored filtered at 1 kHz and analyzed for single channel activity using pCLAMP software package (version 9.0, Axon Instruments, Burlingame, Calif.).

[3] = electron donor activity (XTT reduction); assay type: physicochemical; conditions: Michaelis-Menten fit, read-out: Kd (concentration at which half maximal electron donor activity is observed)
Protocol: (§1) A sample buffer containing a compound to be tested and a photo-reactive dye (i.e., 10 μM methylene blue, eosin B or erythrosin B) can be continuously illuminated with white light (e.g., about 10 cm away from a halogen 20 W light source) and its spectral characteristics monitored as a function of time (e.g., using a HP8452A diode array spectrophotometer). This can be performed in the presence of oxygen. In general, oxygen dissolved in the solution may decrease the photochemical activity of the dye. To compensate and to increase the sensitivity of the method, a comparatively high light intensity can be used (e.g., in the range of about 1-3 mW/cm^2).
(§2) To determine if a compound is an electron acceptor, an electron donor (e.g., NADH or EDTA) can be added to the sample buffer to supply electrons to the photo-excited dye. The electron donor reduces the concentration of the dye cation radical and maintains an increased concentration of the dye anion radical. To test whether a compound is an electron donor, no separate electron donor is necessary. In both cases, a probe can be added (e.g., NBD-Cl or XTT) to react with superoxide and produce a detectable product. The product can be measured, for example, as an increase in absorbance at 470 nm. The difference between the probe absorbance at 470 nm in the presence of the compound to be tested and a control without the compound can be taken as a measure of redox activity of the compound.
When oxygen is unable to intercept all electrons from the dye anion radical, the dye anion radical may disproportionate and form a colorless compound. This process also may serve as a detectable variable corresponding to the redox activity of the tested compound. A compound with electron-acceptor properties intercepts electrons from dye anion radical and thus slows down the rate of dye photo-bleaching. A compound with electron-donor properties donates electrons to the dye cation radical, thus stabilizing the dye anion radical and increasing the rate of dye photo-bleaching. See also International Publication No. WO 2006/086670. […]

[4] = system: Langendorff perfused rabbit hearts; experiment: Dofetilide-induced arrhythmia (LQT2, EADs/TdP) in Langendorff perfused rabbit hearts; assay type: in vivo
Protocol: (§3) FIG. 12A plots the transmembrane potential (Vm) and intracellular calcium level (Cai) over a 3-second period five minutes after administration of dofetilide (0.5 μM). FIG. 12B plots the transmembrane potential (Vm) and intracellular calcium level (Cai) over a 3-second period ten minutes after administration of dofetilide (0.5 μM).
(§4) EADs are triggered by spontaneous SR Ca^2+ release and increase in severity or frequency leading to TdP after a few minutes.

ventricular myocytes = conditions: independent of the presence of FKBP12.6; Hunt et al. 2007; cited from earlier work
[5] = system: TNF-α female perfused mouse hearts; experiment: Ca2+ transients in Langendorff perfused mouse heart (Rhod-2 fluorescence); assay type: in vivo; conditions: for effect on Ca2+ transients, in words: nanomolar concentrations
Description: Ca^2+i transients were monitored in a Langendorff perfused mouse heart using Rhod-2 fluorescence.
It is believed that the faster and larger Ca^2+ transient is due to an increase in Ca^2+ load in the lumen of the SR caused by a reduced Ca^2+ “leak” from the SR.

[6] = system: Langendorff perfused rabbit hearts; experiment: arrhythmia induced by dofetilide in Langendorff perfused rabbit hearts; assay type: in vivo; conditions: with dofetilide 0.5 μM
Protocol: as §3, §4

[7] = molecular target: reactive thiols on the RyR/CRC (Oryctolagus cuniculus, UniProt P11716); experiment: Redox potential of reactive thiols on RyR from rate of ryanodine binding vs solution redox potential; assay type: biochemical; conditions: tetracaine 25 μM; control (20 μM Ca2+) −160.3±3.2 mV
RyR1 = RyR1 (Oryctolagus cuniculus, UniProt P11716); experiment: Thiol content of isolated RyR1 by CPM fluorescence; assay type: biochemical; conditions: 10 mM tetracaine; control ~47 thiols per monomeric receptor
Sequence of RyR1 (P11716 whole entry): as the sequence (P11716 whole entry) above

[8] = Electron donor activity: initial rate of XTT reduction; assay type: physicochemical; conditions: initial rate of XTT reduction fit to Michaelis-Menton equation; read-out: Kd, concentration at which half maximal electron donor activity is observed
Protocol: as §1
as §2, with “In both cases, a probe can be added (e.g., NBD-Cl or XTT) to react with superoxide and produce a detectable product.” left out, “compound. […]” for “compound.”

[9] = skeletal muscle CRC, four parameter logistic curve fit, FIG. 2, read-out: IC50, concentration required to half maximally inhibit single channel activity

In the case of `COc1ccc(O)cc1C` [4-MmC, 4-methoxy-3-methylphenol], the “open probability Po” value ([1]; +10 μM 4-MmC after 6 mM caffeine (Po=0.071), 50 μM Ca2+, FIG. 3C) is reported as 0.015, the Ki ([1]; skeletal muscle CRC, FIG. 5, unit inferred, read-out: Ki for inhibition of single channel activity) is reported as roughly 500 nM and the “effect on open probability (Po), in words” value ([1]; sub-micromolar concentrations, FIG. 5) is reported as “significantly decreased”. For the same compound, the “decrease of open probability (Po) at sub-micromolar concentrations” value [2] was “significantly decreased the open probability (Po)”, the Kd ([3]; listed as 4-methoxy-3-methyl phenol) was 13 µM and the Kd [3] was roughly 13 µM.

For `CN(CCOc1ccc(NS(C)(=O)=O)cc1)CCc1ccc(NS(C)(=O)=O)cc1` [Dofetilide, dofetilide, reference compound], the “time to elicit EADs” value ([4]; dofetilide 0.5 μM) was 5 min and the “pro-arrhythmic effect, in words” value ([4]; dofetilide 0.5 μM, panel B, ten minutes) was “promotes TdP”.

For `COc1ccc2c(c1)CN(C(=O)CCN1CCC(Cc3ccccc3)CC1)CCS2` [K201, reference compound], the Kd [3] is given as 28 µM and the “spontaneous Ca2+ release” value (ventricular myocytes) is given as “suppresses spontaneous Ca^2+ release in ventricular myocytes”.

For `COc1ccc2c(c1)CN(C(=O)CCN1CCC(Cc3ccccc3)CC1)CCS2` [K201], the “effect on channel activity in the absence of FKBP12, in words” value ([1]; 10 μM K201 after 20 μM FK506) was “still inhibited channel activity”, the “open probability Po” value ([1]; +5 μM K201, 20 μM Ca2+, control Po=0.107, FIG. 8B) was 0.060 and the “open probability Po” value ([1]; +10 μM K201, 20 μM Ca2+, control Po=0.107, FIG. 8C) was 0.047. The “open probability Po” value ([1]; +10 μM K201 on FK506-treated (20 μM) channel, Po=0.106 before, FIG. 9C) was 0.009, the IC50 ([1]; IC50 for K201 inhibition of RyR1, FIG. 2, as restated in Example 4, unit inferred) was roughly 4 µM and the IC50 [1, 9] was 3.98 ± 0.79 µM. The “concentration at which amplitude of Ca2+ transients was adversely affected” value ([5]; mouse, in vivo) was 10 to 25 µM and the “effect on Ca2+ transients, in words” value [5] was “enhance Ca^2+ transients”.

With `COc1ccc2c(c1)CN(C(=O)CCN1CCC(Cc3ccc4c(c3)OCO4)CC1)CCS2` [[1,3]dioxole derivative of K201, 3-(4-(benzo[d][1,3]dioxol-5-ylmethyl)piperidin-1-yl)-1-(7-methoxy-2,3-dihydrobenzo[f][1,4]thiazepin-4(5H)-yl)propan-1-one] the IC50 [1, 9] was 0.24 ± 0.05 µM, the “potency of inhibition of single channel activity relative to K201” value ([1]; skeletal muscle CRC, ratio of IC50 values) was “about 16 times” and the “effect on amount of SR Ca2+ release compared to controls, in words” value ([5]; high concentrations) was “did not reduce the amount of SR Ca^2+ release”. The “concentration causing enhancement of fractional change in Rhod-2 fluorescence (Ca2+ transient)” value ([5]; lowest concentration stated (as low as)) was 10 nM, the “effect on Ca2+ transients, in words” value [5] was “enhance Ca^2+ transients” and the “effect on arrhythmias induced by dofetilide, in words” value ([4]; 1 μM test compound, dofetilide 0.5 μM) was “reverse arrhythmias”. For the same compound, the “effect on EADs and AP shape, in words” value ([4]; 1.0 μM, dofetilide 0.5 μM, adult female rabbit hearts paced at 1.2 second intervals) was “all EADs were suppressed” and the “duration of protective effects” value ([4]; continuous perfusion with dofetilide and test compound) was 20 min.

For `COc1ccc2c(c1)CN(C(=O)CCN1CCC(Cc3ccc4c(c3)OCO4)CC1)CCS2` [[1,3]dioxole derivative, 3-(4-(benzo[d][1,3]dioxol-5-ylmethyl)piperidin-1-yl)-1-(7-methoxy-2,3-dihydrobenzo[f][1,4]thiazepin-4(5H)-yl)propan-1-one], the action potential shape ([6]; 1.0 μM) was “the normal AP shape was restored”, the “elimination of EADs and delayed afterdepolarizations (DADs)” value ([6]; 1.0 μM) was “eliminated both EADs and delayed afterdepolarizations (DADs)” and the “reversal of arrhythmias induced by dofetilide” value ([6]; 1 μM, FIG. 12) was “can reverse arrhythmias induced by dofetilide”.

For `CCCCNc1ccc(C(=O)OCCN(C)C)cc1` [tetracaine], the “redox potential of the reactive thiols” value [7] was −147.7±2.8 mV and the “number of thiols reacting with CPM” value (RyR1) was roughly 70 per monomer.

With “FKBP12: FK506 binding protein (calstabin1) that binds RyR1; endogenous electron donor” the Kd [8] was roughly 12.4 µM.
